Data taken from patent US20190381014A1, “ISOQUINOLINONE COMPOUNDS AND USE THEREOF IN PREPARATION OF ANTIVIRAL DRUGS” (Ginkgo Pharma Co., Ltd., priority 2016, published 2019).

Assays:
[1] = system: HBsAg; assay: HBsAg inhibition in HepG2.2.15 culture supernatant (ELISA); format: cell-based, HBV; conditions: Hepatitis B virus, HepG2.2.15, 192 h, read-out: Activity in HBsAg inhibition, EC50
Experimental: Test method: HepG2.2.15 cell line was seeded into 96-well plates at 1.5×10^4 cells/well. On the following day, the cells were treated with a three-fold serial dilution series of the compounds at eight concentration points, and 2 duplicate wells were determined in parallel. The final DMSO concentration in the culture solution was 0.5%. On the fifth day, the culture solution was replaced with fresh solution containing the compounds. On the eighth day, the culture supernatant was collected and the HBsAg in the culture supernatant was detected by ELISA. The percent inhibition was calculated with respect to the blank control.

[2] = Rat PK study (single IV and PO dose, plasma LC-MS/MS); format: in vivo, S-D rats; conditions: for F / AUC(0-t) / clearance / half-life / Vd / Cmax / Tmax: S-D rats; for F: PO 10 mg/kg vs IV 2 mg/kg; for AUC(0-t) / clearance / half-life / Vd / Cmax / Tmax: Sprague-Dawley (S-D), rat, plasma; for Vd: read-out: Vdss; for PK properties (overall judgement): combining PK data of IV and PO
Experimental: Preparation of intravenous injection formulation: accurately weighing 2-3 mg of a sample, adding appropriate amount of N,N-dimethylacetamide (DMA), vortex oscillating to completely dissolve the solid matter; adding an appropriate volume of 30% Solutol HS-15 aqueous solution, vortex oscillating and then adding saline, so that DMA: 30% Solutol HS-15:saline=20:20:60 (v/v/v), vortex oscillating the liquid to mix the liquid evenly, and filtering to obtain a pharmaceutical preparation of a concentration of 0.4 mg·mL^−1.
Preparation of oral formulation: accurately weighing 10 mg of a sample, adding an appropriate volume of 0.5% CMC-Na aqueous solution, vortex oscillating and ultrasounding to mix the liquid evenly to obtain a pharmaceutical preparation of a concentration of 1 mg·mL^−1.
The formulations were freshly prepared on the day of administration, and samples were reserved and taken for the determination of the actual concentration.
S-D rats of Group A were given a single intravenous injection (IV) of 2 mg·kg^−1, respectively; S-D rats of Group B were given a single gavage administration (PO) of 10 mg·kg^−1, respectively. Approximately 0.15 mL of blood sample will was collected via jugular vein into EDTA-K2 tubes at the designated time points of pre-dose, and 5 min (IV only), 15 min, 30 min, 1 h, 2 h, 4 h, 8 h, 12 h and 24 h post dose. All of the whole blood samples were centrifuged for 10 min (at 5500 rpm) to obtain plasma samples, which were stored at a refrigerator below −30˜−10° C. Concentrations of compounds in the plasma samples were analyzed using a LC-MS/MS method. The pharmacokinetic parameters were calculated using non-compartment model in Pharsight Phoenix 7.0 software. See Tables 2a and 2b for the results.

COCCCOc1cc2c(cc1OC)-c1cc(=O)c(C(=O)O)cn1[C@H](C(C)C)C2 [A, reference compound]
EC50 [1]: 4.06 nM
F [2]: 21.5%
AUC(0-t) ([2]; IV 2 mg/kg): 1610 ng·h/mL
clearance ([2]; IV 2 mg/kg): 20.8 mL/min/kg
half-life ([2]; IV 2 mg/kg): 0.94 h
Vd ([2]; IV 2 mg/kg): 1.17 L/kg
AUC(0-t) ([2]; PO 10 mg/kg): 1760 ng·h/mL
Cmax ([2]; PO 10 mg/kg): 475 ng/mL
Tmax ([2]; PO 10 mg/kg): 2.2 h
half-life ([2]; PO 10 mg/kg): 1.5 h

COc1cc2c(cc1O[C@@H]1CCOC1)C[C@@H](C(C)C)n1cc(C(=O)O)c(=O)cc1-2 [Compound I-2, (S)-6-isopropyl-10-methoxy-2-oxo-9-(((R)-tetrahydrofuran-3-yl)oxy)-6,7-dihydro-2H-pyrido[2,1-α]isoquinoline-3-carboxylic acid]
EC50 [1]: 1.82 nM
F [2]: 18.9%
AUC(0-t) ([2]; IV 2 mg/kg): 1800 ng·h/mL
clearance ([2]; IV 2 mg/kg): 18.6 mL/min/kg
half-life ([2]; IV 2 mg/kg): 1.8 h
Vd ([2]; IV 2 mg/kg): 1.51 L/kg
AUC(0-t) ([2]; PO 10 mg/kg): 1690 ng·h/mL
Cmax ([2]; PO 10 mg/kg): 437 ng/mL
Tmax ([2]; PO 10 mg/kg): 1.2 h
half-life ([2]; PO 10 mg/kg): 1.6 h
PK properties (overall judgement) [2]: good PK properties

COc1cc2c(cc1O[C@H]1C[C@H](OC)C1)C[C@@H](C(C)C)n1cc(C(=O)O)c(=O)cc1-2 [Compound I-5, (S)-6-isopropyl-10-methoxy-9-((1R,3S)-3-methoxycyclobutoxy)-2-oxo-6,7-dihydro-2H-pyrido[2,1-α]isoquinoline-3-carboxylic acid]
EC50 [1]: 1.61 nM
F [2]: 37.7%
AUC(0-t) ([2]; IV 2 mg/kg): 2940 ng·h/mL
clearance ([2]; IV 2 mg/kg): 11.3 mL/min/kg
half-life ([2]; IV 2 mg/kg): 0.98 h
Vd ([2]; IV 2 mg/kg): 0.858 L/kg
AUC(0-t) ([2]; PO 10 mg/kg): 5500 ng·h/mL
Cmax ([2]; PO 10 mg/kg): 1340 ng/mL
Tmax ([2]; PO 10 mg/kg): 0.5 h
half-life ([2]; PO 10 mg/kg): 1.7 h
PK properties (overall judgement) [2]: good PK properties

COCC1(COc2cc3c(cc2OC)-c2cc(=O)c(C(=O)O)cn2[C@H](C(C)C)C3)CC1 [Compound I-6, (S)-6-isopropyl-10-methoxy-9-((1-(methoxymethyl)cyclopropyl)methoxy)-2-oxo-6,7-dihydro-2H-pyrido[2,1-α]isoquinoline-3-carboxylic acid]
EC50 [1]: 3.15 nM
F [2]: 45.8%
AUC(0-t) ([2]; IV 2 mg/kg): 1020 ng·h/mL
clearance ([2]; IV 2 mg/kg): 33.6 mL/min/kg
half-life ([2]; IV 2 mg/kg): 0.71 h
Vd ([2]; IV 2 mg/kg): 1.74 L/kg
AUC(0-t) ([2]; PO 10 mg/kg): 2310 ng·h/mL
Cmax ([2]; PO 10 mg/kg): 1490 ng/mL
Tmax ([2]; PO 10 mg/kg): 0.58 h
half-life ([2]; PO 10 mg/kg): 1.9 h
PK properties (overall judgement) [2]: good PK properties

COCC1(COc2cc3c(cc2OC)-c2cc(=O)c(C(=O)O)cn2[C@H](C(C)C)C3)COC1 [Compound I-7, (S)-6-isopropyl-10-methoxy-9-((3-(methoxymethyl)oxetan-3-yl)methoxy)-2-oxo-6,7-dihydro-2H-pyrido[2,1-α]isoquinoline-3-carboxylic acid]
EC50 [1]: 3.82 nM
F [2]: 8.1%
AUC(0-t) ([2]; IV 2 mg/kg): 1180 ng·h/mL
clearance ([2]; IV 2 mg/kg): 28.8 mL/min/kg
half-life ([2]; IV 2 mg/kg): 0.67 h
Vd ([2]; IV 2 mg/kg): 1.39 L/kg
AUC(0-t) ([2]; PO 10 mg/kg): 470 ng·h/mL
Cmax ([2]; PO 10 mg/kg): 103 ng/mL
Tmax ([2]; PO 10 mg/kg): 1 h
half-life ([2]; PO 10 mg/kg): 1.4 h

COc1cc2c(cc1OCC1CC(OC)C1)C[C@@H](C(C)C)n1cc(C(=O)O)c(=O)cc1-2 (stereo partly drawn) [Compound I-8, (S)-6-isopropyl-10-methoxy-9-((3-methoxycyclobutyl)methoxy)-2-oxo-6,7-dihydro-2H-pyrido[2,1-α]isoquinoline-3-carboxylic acid]
EC50 [1]: 1.54 nM
F [2]: 27.1%
AUC(0-t) ([2]; IV 2 mg/kg): 2150 ng·h/mL
clearance ([2]; IV 2 mg/kg): 15.7 mL/min/kg
half-life ([2]; IV 2 mg/kg): 0.89 h
Vd ([2]; IV 2 mg/kg): 1.05 L/kg
AUC(0-t) ([2]; PO 10 mg/kg): 3030 ng·h/mL
Cmax ([2]; PO 10 mg/kg): 739 ng/mL
Tmax ([2]; PO 10 mg/kg): 0.92 h
half-life ([2]; PO 10 mg/kg): 1.3 h
PK properties (overall judgement) [2]: good PK properties

COc1cc2c(cc1OCCCC(C)=O)C[C@@H](C(C)C)n1cc(C(=O)O)c(=O)cc1-2 [Compound I-9, (S)-6-isopropyl-10-methoxy-2-oxo-9-((4-oxopentyl)oxy)-6,7-dihydro-2H-pyrido[2,1-α]isoquinoline-3-carboxylic acid]
EC50 [1]: 3.26 nM
F [2]: 4.3%
AUC(0-t) ([2]; IV 2 mg/kg): 504 ng·h/mL
clearance ([2]; IV 2 mg/kg): 65.9 mL/min/kg
half-life ([2]; IV 2 mg/kg): 0.29 h
Vd ([2]; IV 2 mg/kg): 0.942 L/kg
AUC(0-t) ([2]; PO 10 mg/kg): 105 ng·h/mL
Cmax ([2]; PO 10 mg/kg): 79.9 ng/mL
Tmax ([2]; PO 10 mg/kg): 0.33 h
half-life ([2]; PO 10 mg/kg): 1.8 h

COc1cc2c(cc1OC1CCCC1)C[C@@H](C(C)C)n1cc(C(=O)O)c(=O)cc1-2 [Compound I-10, (S)-9-(cyclopentyloxy)-6-isopropyl-10-methoxy-2-oxo-6,7-dihydro-2H-pyrido[2,1-α]isoquinoline-3-carboxylic acid]
EC50 [1]: 3.01 nM
F [2]: 11.7%
AUC(0-t) ([2]; IV 2 mg/kg): 1490 ng·h/mL
clearance ([2]; IV 2 mg/kg): 22.7 mL/min/kg
half-life ([2]; IV 2 mg/kg): 0.88 h
Vd ([2]; IV 2 mg/kg): 1.41 L/kg
AUC(0-t) ([2]; PO 10 mg/kg): 869 ng·h/mL
Cmax ([2]; PO 10 mg/kg): 265 ng/mL
Tmax ([2]; PO 10 mg/kg): 1 h
half-life ([2]; PO 10 mg/kg): 1.3 h

COc1cc2c(cc1C#CC1CC1)C[C@@H](C(C)C)n1cc(C(=O)O)c(=O)cc1-2 [Compound I-11, (S)-9-(cyclopropylethynyl)-6-isopropyl-10-methoxy-2-oxo-6,7-dihydro-2H-pyrido[2,1-α] isoquinoline-3-carboxylic acid]
EC50 [1]: 2.57 nM
F [2]: 11.5%
AUC(0-t) ([2]; IV 2 mg/kg): 946 ng·h/mL
clearance ([2]; IV 2 mg/kg): 35.9 mL/min/kg
half-life ([2]; IV 2 mg/kg): 0.58 h
Vd ([2]; IV 2 mg/kg): 1.37 L/kg
AUC(0-t) ([2]; PO 10 mg/kg): 461 ng·h/mL
Cmax ([2]; PO 10 mg/kg): 119 ng/mL
Tmax ([2]; PO 10 mg/kg): 1.8 h
half-life ([2]; PO 10 mg/kg): 3.2 h

COc1cc2c(cc1O[C@H]1C[C@@H](OC)C1)C[C@@H](C(C)C)n1cc(C(=O)O)c(=O)cc1-2 [Compound I-19, (S)-6-isopropyl-10-methoxy-9-((1 s, 3R)-3-methoxycyclobutoxy)-2-oxo-6,7-dihydro-2H-pyrido[2,1-α]isoquinoline-3-carboxylic acid]
EC50 [1]: 2.89 nM

COc1cc2c(cc1OC1CCC1)C[C@@H](C(C)C)n1cc(C(=O)O)c(=O)cc1-2 [Compound I-20, (S)-9-cyclobutoxy-6-isopropyl-10-methoxy-2-oxo-6,7-dihydro-2H-pyrido[2,1-α]isoquinoline-3-carboxylic acid]
EC50 [1]: 2.56 nM
